“Also recorded” adds a separate entry of the source. Like-named read-outs stand apart in the source and are kept apart here. Each block holds one compound with its values, some of them ahead of it.
Assays:
[1] = PET quantification of kidney activity of [^68Ga]Ga-PSMA-11 with NaCl or paraaminohippurate; conditions: for relative change of kidney uptake with 200 mg/mL paraaminohippurate coinjection in comparison to 0.9% NaCl: negative = reduction; for effect of paraaminohippurate coinjection on renal uptake (in words): compared with NaCl coinjection
Experimental: PET experiments were conducted by CROmed Translational Research Center Ltd. Healthy adult male Wistar rats (3 animals per group) received an intraperitoneal priming dose of 1 mL of 0.9% NaCl, 1 mL of paraaminohippurate (200 mg/mL), or 1 mL of Arg-Lys (200 mg/mL), followed by 15–30 MBq of [^68Ga]Ga-PSMA-11 once intravenously in combination with 0.9% NaCl, paraaminohippurate, or Arg-Lys. PET examinations were conducted on an upgraded small-animal PET PRIMATE P4 scanner (Concorde Microsystems Inc.) at 5 min and 0.5, 1, 2, and 4 h after injection.

[2] = design: species or system Wistar rats; conditions: male, Wistar, rat, in vivo
Experimental: (§1) Experiments were conducted at the Helmholtz-Zentrum Dresden-Rossendorf, Institute of Radiopharmaceutical Cancer Research (approved by Landesdirektion Dresden, number DD24.1-5131/450/16, July 6, 2018). Groups of 5 male Wistar rats each (average body weight, 210 g) were randomized for coinjection of 0.9% NaCl, Arg-Lys solution (200 mg/mL), or paraaminohippurate solution (200 mg/mL). The animals received an intraperitoneal priming dose of 1.0 mL of 0.9% NaCl, 1.0 mL of Arg-Lys, or 1.0 mL of paraaminohippurate solution 10 min before radiotracer injection. The injection solutions for the biodistribution were prepared as mix of [^177Lu]Lu-DOTATOC solution added to 1.5 mL of NaCl, Arg-Lys, or paraaminohippurate solution. The average injected activity ± SD of [^177Lu]Lu-DOTATOC was 4.32 ± 0.51 MBq/kg in 4 animals, whereas 1 rat per group received 149 ± 15 MBq/kg.
As for paraaminohippurate, 500 mg paraaminohippurate were administered per rat; […] thereof via intravenous injection; this by itself already results in an initial plasma concentration far exceeding the saturating 800 mg/L stated in ([16]). […]
Animals were killed 5 and 60 min after radiotracer injection; organs and tissues of interest were extracted, and their mass and activity were determined. Activities were counted in an automatic γ-counter, which was cross-calibrated with a dose calibrator by 3 standard samples. […]

[3] = SPECT/CT quantification of kidney activity after coinjection of radiotracers with NaCl, Arg-Lys or paraaminohippurate; format: in vivo, Wistar rats; conditions: for relative change of kidney uptake with 200 mg/mL paraaminohippurate coinjection in comparison to 0.9% NaCl: imaging, negative = reduction; for effect of paraaminohippurate coinjection on renal uptake (in words): compared with NaCl coinjection
Experimental: Approximately 10 min later, 50–60 MBq of the ^177Lu-radiolabeled radiopharmaceuticals were injected intravenously in combination with 0.5 mL of 0.9% NaCl, 0.5 mL of paraaminohippurate (200 mg/mL), or 0.5 mL of Arg-Lys (200 mg/mL). At 0.5, 1, 4, 8, and 24 h after injection of the ^177Lu-radiolabeled compounds, SPECT/CT imaging was conducted under isoflurane anesthesia, using Mediso nano-SPECT/CT with a Silver upgrade system (Mediso Kft). VivoQuant version 1.22 software (VivoQuant) was used to determine the volume of interest and to quantify the activity in the kidneys.

[4] = Tolerability of paraaminohippurate coadministration; format: in vivo; conditions: rats, 200 mg/mL solution, intraperitoneal priming plus intravenous coinjection
Experimental: as §1, with “MBq/kg. […]” for “MBq/kg.”
Approximately 10 min later, 50–60 MBq of the ^177Lu-radiolabeled radiopharmaceuticals were injected intravenously in combination with 0.5 mL of 0.9% NaCl, 0.5 mL of paraaminohippurate (200 mg/mL), or 0.5 mL of Arg-Lys (200 mg/mL). […] VivoQuant version 1.22 software (VivoQuant) was used to determine the volume of interest and to quantify the activity in the kidneys.

[5] = glomerular filtration and proximal tubular secretion; cited from earlier work
[6] = design: method as in PMID 38637142; conditions: 12 patients treated with [^177Lu]Lu-DOTATOC; cited from earlier work
[7] = NaCl coinjection, AUC within first hour after injection
[8] = PAH coinjection in comparison to NaCl
[9] = PAH coinjection, AUC within first hour after injection
[10] = independent of the coinjected compound
[11] = paraaminohippurate vs NaCl coinjection
[12] = male, Wistar, rat, in vivo, %ID/g of kidney tissue

relative change of kidney uptake with 200 mg/mL paraaminohippurate coinjection in comparison to 0.9% NaCl ([1]; 5 min): −21% | relative change of kidney uptake with 200 mg/mL paraaminohippurate coinjection in comparison to 0.9% NaCl ([1]; 0.5 h): −23% | relative change of kidney uptake with 200 mg/mL paraaminohippurate coinjection in comparison to 0.9% NaCl ([1]; 1 h): −37% | relative change of kidney uptake with 200 mg/mL paraaminohippurate coinjection in comparison to 0.9% NaCl ([1]; 2 h): −5% | relative change of kidney uptake with 200 mg/mL paraaminohippurate coinjection in comparison to 0.9% NaCl ([1]; 4 h): +15% | kidney AUC0–1 h, NaCl [1, 7]: 45.9 %ID/g*h | kidney AUC0–1 h, Difference [1, 8]: −19% | kidney AUC0–1 h, PAH [1, 9]: 37.1 %ID/g*h | effect of paraaminohippurate coinjection on renal uptake (in words) ([1]; listed as PSMA-11): reduced | time of peak kidney activity after injection [1, 10]: 0.5 h | reduction of kidney AUC within the first hour after injection [1, 11]: 19%
Compound: O=C([O-])CN(CCN(CC(=O)[O-])Cc1cc(CCC(=O)NCCCCCC(=O)NCCCC[C@H](NC(=O)N[C@@H](CCC(=O)O)C(=O)O)C(=O)O)ccc1[O-])Cc1cc(CCC(=O)O)ccc1[O-].[68Ga+3].[OH3+] [[^68Ga]Ga-PSMA-11]
effect of paraaminohippurate coinjection on renal uptake (in words) [1]: To a lesser extent, paraaminohippurate-mediated nephroprotection was observed

kidney uptake ([2]; 5 min): 2.93 ± 0.42 %ID/g | kidney uptake ([2]; 1 h): 2.16 ± 0.31 %ID/g | %ID/g of kidney tissue ([3]; male, Wistar, rat, in vivo, 0.5 h): 13.3 (8.4) %ID/g | %ID/g of kidney tissue ([3]; male, Wistar, rat, in vivo, 8 h): 2.7 (0.0) %ID/g | tissue uptake at 1 h [3, 12]: 12.2 %ID/g | tissue uptake at 4 h [3, 12]: 2.7 %ID/g | tissue uptake at 24 h [3, 12]: 2.4 %ID/g | kidney AUC0–24 h, Difference ([3]; rat, in vivo): −51% | kidney AUC0–24 h, NaCl ([3]; rat, in vivo): 87.0 %ID/g*h | kidney AUC0–24 h, PAH ([3]; rat, in vivo): 43.0 %ID/g*h | time of peak / maximum kidney activity after injection ([3]; rat, in vivo): 0.5 h
Compound: C[C@@H](O)[C@@H]1NC(=O)[C@H](CCCCN)NC(=O)[C@@H](Cc2c[nH]c3ccccc23)NC(=O)[C@H](Cc2ccc(O)cc2)NC(=O)[C@@H](NC(=O)[C@@H](Cc2ccccc2)NC(=O)CN2CCN(CC(=O)O)CCN(CC(=O)O)CCN(CC(=O)O)CC2)CSSC[C@@H](C(=O)N[C@H](CO)[C@@H](C)O)NC1=O [[^177Lu]Lu-DOTATOC, metal not drawn]

Compound: O=C([O-])CC[C@H](NC(=O)N[C@@H](CCCCNC(=O)CCCCCCC(=O)NCCCC[C@@H](NC(=O)[C@@H](Cc1ccccc1)NC(=O)[C@@H](Cc1ccc(O)c(I)c1)NC(=O)CC[C@H](C(=O)[O-])N1CCN(CC(=O)[O-])CCN(CC(=O)[O-])CCN(CC(=O)[O-])CC1)C(=O)[O-])C(=O)[O-])C(=O)[O-].[177Lu+3].[H+].[H+].[H+].[H+].[H+] [[^177Lu]Lu-PSMA-I&T]
relative change of kidney uptake with 200 mg/mL paraaminohippurate coinjection in comparison to 0.9% NaCl ([3]; 0.5 h): −18% | relative change of kidney uptake with 200 mg/mL paraaminohippurate coinjection in comparison to 0.9% NaCl ([3]; 1 h): −22% | relative change of kidney uptake with 200 mg/mL paraaminohippurate coinjection in comparison to 0.9% NaCl ([3]; 4 h): −61% | kidney AUC0–1 h, NaCl [3, 7]: 64.7 %ID/g*h | kidney AUC0–1 h, Difference [3, 8]: −34% | kidney AUC0–1 h, PAH [3, 9]: 42.8 %ID/g*h | effect of paraaminohippurate coinjection on renal uptake (in words) [3]: To a lesser extent, paraaminohippurate-mediated nephroprotection was observed | effect of paraaminohippurate coinjection on renal uptake (in words) ([3]; listed as PSMA-I&T): reduced | time of peak / maximum kidney activity after injection [3, 10]: 0.5 h | reduction of kidney AUC within the first hour after injection [3, 11]: 34%

Compound: Nc1ccc(C(=O)NCC(=O)[O-])cc1.[Na+] [paraaminohippurate, sodium paraaminohippurate]
tolerability / toxicity of coadministration [4]: well tolerated, and no immediate or delayed toxicity was observed | tolerability / toxicity of coadministration ([4]; listed as Paraaminohippurate): well tolerated, with no toxicity observed | fraction filtered by the kidney from the plasma in a single pass-through [5]: more than 90% | kidney uptake of the radiolabeled compound versus Arg-Lys solution [6]: comparable | tolerability in patients [6]: well tolerated

Compound: [^177Lu]Lu-DOTATATE
relative change of kidney uptake with 200 mg/mL paraaminohippurate coinjection in comparison to 0.9% NaCl ([3]; 0.5 h): −80% | relative change of kidney uptake with 200 mg/mL paraaminohippurate coinjection in comparison to 0.9% NaCl ([3]; 1 h): −83% | relative change of kidney uptake with 200 mg/mL paraaminohippurate coinjection in comparison to 0.9% NaCl ([3]; 4 h): −56% | relative change of kidney uptake with 200 mg/mL paraaminohippurate coinjection in comparison to 0.9% NaCl ([3]; 8 h): −49% | relative change of kidney uptake with 200 mg/mL paraaminohippurate coinjection in comparison to 0.9% NaCl ([3]; 24 h): −46% | kidney AUC0–24 h, NaCl ([3]; NaCl coinjection, AUC within 24 h after injection): 113.7 %ID/g*h | kidney AUC0–24 h, Difference [3, 8]: −60% | kidney AUC0–24 h, PAH ([3]; PAH coinjection, AUC within 24 h after injection): 45.4 %ID/g*h | effect of paraaminohippurate coinjection on renal uptake (in words) [3]: significantly lower; also recorded: markedly diminished; also recorded: significantly reduced | time of peak / maximum kidney activity after injection [3, 10]: 0.5 h

Reference: publication PMC12051768, “Reduced Renal Uptake of Various Radiopharmaceuticals with Sodium Paraaminohippurate Coadministration in a Rat Model” (Journal of Nuclear Medicine, 2025)
